Assays:
[1] = cited from earlier work
[2] = test system: bacterial flora of prerigor beef; experiment: Working Example #2: total plate count on prerigor beef, extended spray and exposure times; format: cell-based; conditions: 0.5% Lactic Acid, 25 psi, 10 sec spray, 10-minute exposure
Excerpt: The objective of the testing was to determine the efficacy of various antimicrobial treatments with extended spray and exposure times against the bacterial flora of prerigor beef. Prerigor beef samples were obtained and kept in a cooler at ambient temperature until time of testing. Ten different test treatments were utilized with four replicates per treatment. Two cores (4.3 cm diameter) were taken as each replicate from one piece for both before- and after-treatment samples and combined into 99 mL of Letheen Broth. The cores/neutralizer mixtures were stomached for 1 minute and then serially diluted and plated using pour plate technique. Test Products: • Test Formula #1* at 200 ppm […]=0.42% (4.2 mL were added to 995.8 mL tap water) • Test Formula #1* at 500 ppm […] (10.5 mL were added to 989.5 mL tap water) • 0.5% Lactic Acid • *Test Formula #1, batch # Si120972, was titrated at 4.76% total peracid. Application: Eight cores (2 cores per replicate) were placed onto a clean and sanitary screen. The cores were sprayed with the appropriate test product utilizing a 10- or 30-second spray application time. For each replicate, two cores were removed after a 10-minute exposure time and placed into a stomacher bag containing 99 mL of neutralizer. Neutralizer: 99 mL Letheen Broth Dilutions: 10^0, 10^-1, 10^-2 for Total Plate Count Before • 10^0, 10^-1 for Total Plate Count After Plating Medium: Tryptone Glucose Extract Agar Incubation: 26° C. for 72 hours Calculations: Average CFU/plate=(All eight counts from four replicates/4) • Average CFU/plate×100=Average CFU/100 mL=Y [formula] • Dilution=10, 100, or 1000 • r=2.15 cm • 2=# of cores

[3] = test system: bacterial flora of prerigor beef; experiment: Working Example #4: total plate count on prerigor beef, high pressure spray, comparison to Lactic Acid; format: cell-based; conditions: ~0.5% Lactic Acid, ~230 psi, 30 sec spray, 10-minute exposure
Excerpt: The objective of the testing was to determine the efficacy of Test Formula #1 at approximately 50, 100 and 200 ppm total peracid with a high pressure application spray at elevated temperatures in comparison to Lactic Acid against the bacterial flora of prerigor beef. Prerigor beef samples were obtained and kept in a cooler at ambient temperature until time of testing. Four different test treatments were utilized with four replicates per treatment. Two cores (4.3 cm diameter) were taken as each replicate from one piece for both before- and after-treatment samples and combined into 99 mL of Letheen Broth. The cores/neutralizer mixtures were stomached for 1 minute and then serially diluted and plated using pour plate technique. Test Product: Test Formula #1 at 50, 100 and 200 ppm total peracid • Lactic Acid (88% concentrate) • (Batch # Si120972, was titrated at 4.76% total peracid) Application: Eight cores (2 cores per replicate) were aseptically removed from each sample before treatment. These were used for the before-treatment samples. The remaining sample was placed onto a clean and sanitary screen. The sample was then sprayed with Test Formula #1 at approximately 50, 100 or 200 ppm total peracid utilizing a 20- or 30-second spray application time. 0.5% Lactic Acid utilized only the 30-second spray application. […]

[4] = test system: bacterial flora present on prerigor beef samples; experiment: Working Example #1: total plate count on prerigor beef after spray, with or without steam; format: cell-based
Procedure: The objective of working example #1 was to determine if 0.5% and 1.0% lactic acid alone and in combination with Test Formula #1 and/or steam achieved a reduction in the bacterial flora present on prerigor beef samples. An exposure time of 10 minutes was utilized for all applications and testing was performed at 33° C. Sixteen prerigor beef samples were obtained and kept in a cooler until time of testing. Samples were aseptically divided in half. Eight different test treatments were utilized with four replicate pieces per treatment with the exception of the steam +0.5% lactic acid treatment which only had three replicate pieces. Two cores (4.3 cm diameter) were taken from each replicate piece before and after treatment, combined into 99 mL of Phosphate Buffered Dilution water, stomached for 1 minutes and then serially diluted and plated using pour plate technique. Test Products: • 1. Test Formula #1 at 200 ppm Total […] • 2. Test Formula #1 at 200 ppm Total […]+0.5% Lactic Acid • 3. Test Formula #1 at 200 ppm Total […]+1.0% Lactic Acid • 4. 0.5% Lactic Acid • 5. Steam Alone, followed by a sterile water rinse • 6. Steam+Test Formula #1 at 200 ppm Total […], followed by a sterile water rinse • 7. Steam+Test Formula #1 at 200 ppm Total […]+0.5% Lactic Acid, followed by a sterile water rinse • 8. Steam+0.5% Lactic Acid followed by a sterile water rinse Product Application: All product use solutions were applied by a spray application for 10 seconds. This delivered approximately 150 mL of product. An exposure time of 10 minutes was utilized, followed by a 10 second sterile water rinse, if applicable. Neutralizer: 99 mL of Phosphate Buffered Dilution Water Dilutions Plated: 10^0, 10^-1, 10^-2 for Total Plate Count Before • 10^0, 10^-1 for Total Plate Count After Plating Medium: Tryptone Glucose Extract Agar Incubation: 26° C. for 72 hours [table]

[5] = test system: Listeria innocua ATCC 33090; experiment: Working Example #5: inoculated prerigor beef, high-pressure spray; format: cell-based; conditions: ˜0.5%-0.75% Lactic Acid; ~220 psi, 30 second spray, ˜120° F., 10 minutes exposure
Procedure: The objective of the testing was to determine the efficacy of Test Formula #1 and Lactic Acid against Listeria innocua ATCC 33090 with a high-pressure application spray at elevated temperatures. Prerigor beef samples were obtained and kept in a cooler at ambient temperature until time of testing. Samples were cut into 13 cm pieces and 2.0 mL of the inoculum (see Test System Preparation below) was spread evenly over the entire surface of the sample. Inoculated samples were then left at room temperature (˜23° C.) for ≧15 minutes. Four replicate samples were taken (two cores per replicate) before treatment. After each spray treatment, a 10-minute exposure time was utilized, and taken four replicate samples were taken (two cores per replicate) and stomached for 1 minute, serially diluted and plated using pour plate technique. Treatments: • 1. Test Formula #1 at 200 ppm total peracid with […], 30 second spray time. • 2. Test Formula #1 at 200 ppm total peracid with ˜150 psi pressure spray, 30 second spray time. • 3. Test Formula #1 at 200 ppm total peracid with ˜100 psi pressure spray, 30 second spray time. • 4. Water Control with ˜220 psi pressure spray, 30-second spray time. • 5. ˜0.5%-0.75% Lactic Acid with ˜220 psi pressure spray, 30-second spray time. • 6. Test Formula #1 at 100 ppm total peracid with ˜220 psi pressure spray, 30 second spray time. • 7. […]

Row | Compound | solubility [1] | Avg. Log10 Reduc. ([2]; 98° F.) [Log10] | Avg. CFU/100 mL After ([2]; 98° F., Before 1.6 × 10^4) | Avg. Log10 Reduc. ([2]; 120° F.) [Log10] | Avg. CFU/100 mL After ([2]; 120° F., Before 1.0 × 10^5) | Avg. Log10 Reduc. [3] [Log10] | Avg. CFU/100 mL After ([3]; Before 8.7 × 10^5) | Avg. Log10 Reduc. ([4]; 0.5% Lactic Acid, 10 s spray, 10 min exposure, 33° C.) [Log10] | Avg. CFU/100 mL After ([4]; 0.5% Lactic Acid, 10 s spray, 10 min exposure, 33° C., Before 2.7 × 10^4) | Avg. Log10 Reduc. ([4]; Steam + 0.5% Lactic Acid, with sterile water rinse) [Log10] | Avg. CFU/100 mL After ([4]; Steam + 0.5% Lactic Acid, with sterile water rinse, Before 2.5 × 10^4) | Avg. CFU/100 mL After [5] | Avg. Log10 Reduc. [5] [Log10]
1 | peroxyacetic acid | freely soluble in water, alcohol, ether, and sulfuric acid | – | – | – | – | – | – | – | – | – | – | – | –
2 | CC(O)C(=O)O (stereo not shown) [Lactic Acid, 2-hydroxypropionic acid] | – | −0.01 | 1.5 × 10^4 CFU/100 mL | 0.07 | 8.4 × 10^4 CFU/100 mL | 1.58 | 2.3 × 10^4 CFU/100 mL | 0.91 | 5.4 × 10^3 CFU/100 mL | 1.69 | 9.3 × 10^2 CFU/100 mL | 3.5 × 10^5 CFU/100 mL | 1.63

Source: patent US9770040B2, “Treatment of animal carcasses” (Ecolab USA Inc., priority 1998, dated 2017)
